Source: ChEMBL document CHEMBL4610129, “Discovery of Novel Selective and Orally Bioavailable Phosphodiesterase-1 Inhibitors for the Efficient Treatment of Idiopathic Pulmonary Fibrosis” (J Med Chem, 2020)
≈ marks a conversion by molar mass, not a printed value. Calls of active or inactive are those of the source. The calls are words filed in the database; no cut-off is given here.

Columns and labels:
[1] = Half life in rat liver microsomes; format: ADME, Microsome
[2] = Half life in human liver microsomes; format: ADME, Microsome
[3] = molecular target: cGMP-dependent 3',5'-cyclic phosphodiesterase (Homo sapiens, UniProt O00408); assay: Inhibition of PDE2A (580 to 919 residues) (unknown origin) using [3H]-cGMP substrate incubated for 15 mins by liquid scintillation counting method relative to control
[4] = molecular target: cGMP-inhibited 3',5'-cyclic phosphodiesterase 3A (Homo sapiens, UniProt Q14432); assay: Inhibition of PDE3A (679 to 1087 residues) (unknown origin) using [3H]-cAMP substrate incubated for 15 mins by liquid scintillation counting method relative to control
[5] = molecular target: 3',5'-cyclic-AMP phosphodiesterase 4D (Homo sapiens, UniProt Q08499); assay: Inhibition of PDE4D2 (86 to 413 residues) (unknown origin) using [3H]-cAMP substrate incubated for 15 mins by liquid scintillation counting method relative to control
[6] = molecular target: Cone cGMP-specific 3',5'-cyclic phosphodiesterase subunit alpha' (Homo sapiens, UniProt P51160); assay: Inhibition of PDE6C (1 to 858 residues) (unknown origin) using [3H]-cGMP substrate incubated for 15 mins by liquid scintillation counting method relative to control
[7] = molecular target: High affinity 3',5'-cyclic-AMP phosphodiesterase 7A (Homo sapiens, UniProt Q13946); assay: Inhibition of PDE7A1 (130 to 482 residues) (unknown origin) using [3H]-cAMP substrate incubated for 15 mins by liquid scintillation counting method relative to control
[8] = molecular target: High affinity cAMP-specific and IBMX-insensitive 3',5'-cyclic phosphodiesterase 8A (Homo sapiens, UniProt O60658); assay: Inhibition of PDE8A1 (480 to 820 residues) (unknown origin) using [3H]-cAMP substrate incubated for 15 mins by liquid scintillation counting method relative to control
[9] = molecular target: cAMP and cAMP-inhibited cGMP 3',5'-cyclic phosphodiesterase 10A (Homo sapiens, UniProt Q9Y233); assay: Inhibition of PDE10A (449 to 770 residues) (unknown origin) using [3H]-cAMP substrate incubated for 15 mins by liquid scintillation counting method relative to control
[10] = Half life in Sprague-Dawley rat at 2.5 mg/kg, iv; format: ADME, organism-based; conditions: in vivo
[11] = Half life in Sprague-Dawley rat at 5 mg/kg, po; format: ADME, organism-based; conditions: in vivo
[12] = Tmax in Sprague-Dawley rat at 5 mg/kg, po; format: ADME, organism-based; conditions: in vivo
[13] = Cmax in Sprague-Dawley rat at 5 mg/kg, po; format: ADME, organism-based; parameters: dose 5 mg/kg, route oral; conditions: in vivo
[14] = AUC (0 to t) in Sprague-Dawley rat at 5 mg/kg, po; format: ADME, organism-based; conditions: in vivo
[15] = AUC (0 to infinity) in Sprague-Dawley rat at 2.5 mg/kg, iv; format: ADME, organism-based; parameters: dose 2.5 mg/kg, time infinity, route intravenous; conditions: in vivo
[16] = AUC (0 to infinity) in Sprague-Dawley rat at 5 mg/kg, po; format: ADME, organism-based; parameters: dose 5 mg/kg, time infinity, route oral; conditions: in vivo
[17] = MRT (0 to t) in Sprague-Dawley rat at 2.5 mg/kg, iv; format: ADME, organism-based; conditions: in vivo
[18] = MRT (0 to t) in Sprague-Dawley rat at 5 mg/kg, po; format: ADME, organism-based; conditions: in vivo
[19] = Oral bioavailability in Sprague-Dawley rat at 5 mg/kg; format: ADME, organism-based; conditions: in vivo
[20] = Solubility in pH 6 solution by HPLC analysis; format: physicochemical
[21] = Unbound fraction in human plasma; format: ADME, cell-free
[22] = molecular target: T1, Cytochrome P450 3A4 (Homo sapiens, UniProt P08684); assay: Inhibition of human CYP3A4 using testosterone as substrate; format: ADME
[23] = molecular target: T1, Cytochrome P450 3A4; assay: Inhibition of human CYP3A4 using midazolam as substrate; format: ADME
[24] = molecular target: Cytochrome P450 2C9 (Homo sapiens, UniProt P11712); assay: Inhibition of human CYP2C9; format: ADME
[25] = molecular target: Voltage-gated inwardly rectifying potassium channel KCNH2 (Homo sapiens, UniProt Q12809); assay: Inhibition of human ERG
[26] = Acute toxicity in mouse; format: organism-based; conditions: in vivo
[27] = system: Rattus norvegicus; assay: Anti-pulmonary fibrosis activity in Sprague-Dawley rat model of BLM-induced idiopathic pulmonary fibrosis assessed as reduction in end-inspiratory pause at 10 mg/kg, po dosed daily for 28 days by mka noninvasive pulmonary monitoring system based method; format: functional, organism-based
[28] = system: Rattus norvegicus; assay: Anti-pulmonary fibrosis activity in Sprague-Dawley rat model of BLM-induced idiopathic pulmonary fibrosis assessed as reduction in end-expiratory pause at 10 mg/kg, po dosed daily for 28 days by mka noninvasive pulmonary monitoring system based method; format: functional, organism-based
[29] = system: Rattus norvegicus; assay: Anti-pulmonary fibrosis activity in Sprague-Dawley rat model of BLM-induced idiopathic pulmonary fibrosis assessed as reduction in peak expiratory flow at 10 mg/kg, po dosed daily for 28 days by mka noninvasive pulmonary monitoring system based method; format: functional, organism-based
[30] = system: Rattus norvegicus; assay: Anti-pulmonary fibrosis activity in Sprague-Dawley rat model of BLM-induced idiopathic pulmonary fibrosis assessed as reduction in enhanced pause at 10 mg/kg, po dosed daily for 28 days by mka noninvasive pulmonary monitoring system based method; format: functional, organism-based
[31] = system: Rattus norvegicus; assay: Anti-pulmonary fibrosis activity in Sprague-Dawley rat model of BLM-induced idiopathic pulmonary fibrosis assessed as reduction in lung structural damage at 10 mg/kg, po dosed daily for 28 days by H and E staining based assay; format: functional, organism-based
[32] = system: Rattus norvegicus; assay: Anti-pulmonary fibrosis activity in Sprague-Dawley rat model of BLM-induced idiopathic pulmonary fibrosis assessed as inhibition of collagen deposition at 10 mg/kg, po dosed daily for 28 days by Masson staining based assay; format: functional, organism-based
[33] = system: Rattus norvegicus; assay: Anti-pulmonary fibrosis activity in Sprague-Dawley rat model of BLM-induced idiopathic pulmonary fibrosis assessed as inhibition of alpha-SMA protein expression at 10 mg/kg, po dosed daily for 28 days by Western blot analysis; format: functional, organism-based
[34] = system: Rattus norvegicus; assay: Anti-pulmonary fibrosis activity in Sprague-Dawley rat model of BLM-induced idiopathic pulmonary fibrosis assessed as inhibition of alpha-SMA protein expression at 10 mg/kg, po dosed daily for 28 days by immunofluorescence staining analysis; format: functional, organism-based
[35] = species on record: Homo sapiens; assay: Anti-pulmonary fibrosis activity in human HLF assessed as reduction in TGF-beta-induced myofibroblast differentiation by measuring reduction in fibronectin protein expression incubated for 48 hrs by Western blot analysis; format: functional
[36] = species on record: Homo sapiens; assay: Anti-pulmonary fibrosis activity in human HLF assessed as reduction in TGF-beta-induced myofibroblast differentiation by measuring reduction in fibronectin protein expression incubated for 48 hrs by immunofluorescence staining analysis; format: functional

T1 sequence (P08684 whole entry): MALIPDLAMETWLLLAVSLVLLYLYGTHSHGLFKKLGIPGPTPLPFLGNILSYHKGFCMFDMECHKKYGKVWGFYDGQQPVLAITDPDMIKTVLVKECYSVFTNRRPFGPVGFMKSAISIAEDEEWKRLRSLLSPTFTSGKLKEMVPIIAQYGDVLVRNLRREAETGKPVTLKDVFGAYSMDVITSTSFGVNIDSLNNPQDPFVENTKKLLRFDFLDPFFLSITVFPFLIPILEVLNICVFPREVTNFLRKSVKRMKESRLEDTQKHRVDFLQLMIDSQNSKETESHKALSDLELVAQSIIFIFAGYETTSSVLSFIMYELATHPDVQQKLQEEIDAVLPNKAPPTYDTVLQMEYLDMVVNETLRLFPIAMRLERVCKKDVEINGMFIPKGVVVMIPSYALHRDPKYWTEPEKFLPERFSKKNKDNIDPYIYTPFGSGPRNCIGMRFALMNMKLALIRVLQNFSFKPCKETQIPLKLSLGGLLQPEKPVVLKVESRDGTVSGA
Chain of Voltage-gated inwardly rectifying potassium channel KCNH2 (Q12809 whole entry): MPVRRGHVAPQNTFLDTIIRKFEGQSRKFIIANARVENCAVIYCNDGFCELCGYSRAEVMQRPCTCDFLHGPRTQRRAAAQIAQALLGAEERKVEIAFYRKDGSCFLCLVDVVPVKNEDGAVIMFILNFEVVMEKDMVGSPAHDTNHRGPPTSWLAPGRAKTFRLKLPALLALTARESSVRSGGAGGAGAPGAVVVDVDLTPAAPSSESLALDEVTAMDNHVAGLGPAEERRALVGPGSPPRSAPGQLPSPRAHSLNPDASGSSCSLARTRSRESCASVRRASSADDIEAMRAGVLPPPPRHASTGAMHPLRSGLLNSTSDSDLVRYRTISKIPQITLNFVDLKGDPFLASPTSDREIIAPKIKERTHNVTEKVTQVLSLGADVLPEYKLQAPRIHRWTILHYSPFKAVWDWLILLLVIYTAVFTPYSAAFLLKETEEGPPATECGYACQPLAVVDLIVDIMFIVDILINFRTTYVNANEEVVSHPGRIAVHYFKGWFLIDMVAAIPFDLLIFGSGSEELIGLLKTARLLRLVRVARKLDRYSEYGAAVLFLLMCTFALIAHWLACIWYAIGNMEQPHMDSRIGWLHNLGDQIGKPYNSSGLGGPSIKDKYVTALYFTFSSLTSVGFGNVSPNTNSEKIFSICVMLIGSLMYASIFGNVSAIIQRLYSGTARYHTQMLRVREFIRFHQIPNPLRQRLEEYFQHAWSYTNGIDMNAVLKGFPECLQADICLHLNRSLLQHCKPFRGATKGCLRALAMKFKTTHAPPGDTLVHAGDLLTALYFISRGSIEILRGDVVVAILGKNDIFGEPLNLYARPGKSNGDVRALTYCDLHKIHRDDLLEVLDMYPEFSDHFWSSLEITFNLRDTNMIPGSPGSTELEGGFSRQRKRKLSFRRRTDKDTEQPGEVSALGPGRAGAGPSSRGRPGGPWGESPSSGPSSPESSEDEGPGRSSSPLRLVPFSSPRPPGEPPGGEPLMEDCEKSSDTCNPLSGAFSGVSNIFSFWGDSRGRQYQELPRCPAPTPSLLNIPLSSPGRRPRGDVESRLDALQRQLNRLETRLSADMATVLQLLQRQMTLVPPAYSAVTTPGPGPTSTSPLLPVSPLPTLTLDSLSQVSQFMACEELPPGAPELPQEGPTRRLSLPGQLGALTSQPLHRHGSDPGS
Chain of 3',5'-cyclic-AMP phosphodiesterase 4D (Q08499 whole entry, the tested form may be a part): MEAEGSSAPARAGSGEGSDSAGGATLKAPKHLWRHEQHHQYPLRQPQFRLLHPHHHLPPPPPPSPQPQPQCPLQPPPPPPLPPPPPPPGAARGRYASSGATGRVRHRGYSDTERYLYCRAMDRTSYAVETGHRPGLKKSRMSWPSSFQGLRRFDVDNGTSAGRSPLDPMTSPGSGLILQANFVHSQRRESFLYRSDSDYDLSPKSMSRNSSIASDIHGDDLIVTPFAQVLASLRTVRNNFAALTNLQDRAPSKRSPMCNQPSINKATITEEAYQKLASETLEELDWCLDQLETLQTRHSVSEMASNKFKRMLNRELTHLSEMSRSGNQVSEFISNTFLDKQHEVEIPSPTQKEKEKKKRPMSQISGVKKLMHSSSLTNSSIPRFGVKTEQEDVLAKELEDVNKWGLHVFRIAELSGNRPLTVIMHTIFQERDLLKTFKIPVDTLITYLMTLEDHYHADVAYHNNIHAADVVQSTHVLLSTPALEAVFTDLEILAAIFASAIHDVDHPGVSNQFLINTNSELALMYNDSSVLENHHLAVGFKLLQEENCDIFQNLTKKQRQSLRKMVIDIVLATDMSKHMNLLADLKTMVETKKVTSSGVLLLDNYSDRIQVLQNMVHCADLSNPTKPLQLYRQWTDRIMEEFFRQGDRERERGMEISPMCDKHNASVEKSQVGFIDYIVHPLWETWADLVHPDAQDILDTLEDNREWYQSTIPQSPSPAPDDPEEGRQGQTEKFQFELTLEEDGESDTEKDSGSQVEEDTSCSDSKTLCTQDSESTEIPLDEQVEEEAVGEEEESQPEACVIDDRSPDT
Chain of cGMP-inhibited 3',5'-cyclic phosphodiesterase 3A (Q14432 whole entry, the tested form may be a part): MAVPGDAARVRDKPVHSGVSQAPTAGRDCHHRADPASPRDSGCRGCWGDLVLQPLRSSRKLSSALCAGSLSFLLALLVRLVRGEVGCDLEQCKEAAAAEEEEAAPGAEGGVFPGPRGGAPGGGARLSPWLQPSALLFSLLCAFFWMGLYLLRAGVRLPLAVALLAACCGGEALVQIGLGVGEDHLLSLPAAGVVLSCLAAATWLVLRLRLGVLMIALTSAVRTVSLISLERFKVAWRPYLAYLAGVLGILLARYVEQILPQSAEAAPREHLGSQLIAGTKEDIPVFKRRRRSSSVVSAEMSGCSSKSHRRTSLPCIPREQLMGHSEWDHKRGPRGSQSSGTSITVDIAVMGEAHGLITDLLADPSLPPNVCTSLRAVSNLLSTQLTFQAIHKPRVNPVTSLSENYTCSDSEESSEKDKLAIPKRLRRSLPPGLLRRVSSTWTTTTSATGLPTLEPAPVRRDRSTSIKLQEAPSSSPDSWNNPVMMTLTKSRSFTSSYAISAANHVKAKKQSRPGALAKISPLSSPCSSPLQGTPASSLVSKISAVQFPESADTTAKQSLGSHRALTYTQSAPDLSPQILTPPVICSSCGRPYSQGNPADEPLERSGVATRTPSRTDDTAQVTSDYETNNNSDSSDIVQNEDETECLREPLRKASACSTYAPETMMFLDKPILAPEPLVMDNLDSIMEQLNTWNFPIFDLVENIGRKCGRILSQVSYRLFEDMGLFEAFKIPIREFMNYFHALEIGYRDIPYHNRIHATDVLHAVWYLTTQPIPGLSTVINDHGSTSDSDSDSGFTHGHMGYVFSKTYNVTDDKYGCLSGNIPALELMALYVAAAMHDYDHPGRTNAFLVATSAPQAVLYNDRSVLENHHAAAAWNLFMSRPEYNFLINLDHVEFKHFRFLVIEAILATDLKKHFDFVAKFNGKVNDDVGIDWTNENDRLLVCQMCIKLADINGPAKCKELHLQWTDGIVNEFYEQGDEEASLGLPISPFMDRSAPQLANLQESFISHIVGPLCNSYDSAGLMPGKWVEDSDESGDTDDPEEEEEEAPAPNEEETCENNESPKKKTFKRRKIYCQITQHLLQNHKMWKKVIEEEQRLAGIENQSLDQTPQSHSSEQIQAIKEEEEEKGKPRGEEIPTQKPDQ
Chain of Cone cGMP-specific 3',5'-cyclic phosphodiesterase subunit alpha' (P51160 whole entry, the tested form may be a part): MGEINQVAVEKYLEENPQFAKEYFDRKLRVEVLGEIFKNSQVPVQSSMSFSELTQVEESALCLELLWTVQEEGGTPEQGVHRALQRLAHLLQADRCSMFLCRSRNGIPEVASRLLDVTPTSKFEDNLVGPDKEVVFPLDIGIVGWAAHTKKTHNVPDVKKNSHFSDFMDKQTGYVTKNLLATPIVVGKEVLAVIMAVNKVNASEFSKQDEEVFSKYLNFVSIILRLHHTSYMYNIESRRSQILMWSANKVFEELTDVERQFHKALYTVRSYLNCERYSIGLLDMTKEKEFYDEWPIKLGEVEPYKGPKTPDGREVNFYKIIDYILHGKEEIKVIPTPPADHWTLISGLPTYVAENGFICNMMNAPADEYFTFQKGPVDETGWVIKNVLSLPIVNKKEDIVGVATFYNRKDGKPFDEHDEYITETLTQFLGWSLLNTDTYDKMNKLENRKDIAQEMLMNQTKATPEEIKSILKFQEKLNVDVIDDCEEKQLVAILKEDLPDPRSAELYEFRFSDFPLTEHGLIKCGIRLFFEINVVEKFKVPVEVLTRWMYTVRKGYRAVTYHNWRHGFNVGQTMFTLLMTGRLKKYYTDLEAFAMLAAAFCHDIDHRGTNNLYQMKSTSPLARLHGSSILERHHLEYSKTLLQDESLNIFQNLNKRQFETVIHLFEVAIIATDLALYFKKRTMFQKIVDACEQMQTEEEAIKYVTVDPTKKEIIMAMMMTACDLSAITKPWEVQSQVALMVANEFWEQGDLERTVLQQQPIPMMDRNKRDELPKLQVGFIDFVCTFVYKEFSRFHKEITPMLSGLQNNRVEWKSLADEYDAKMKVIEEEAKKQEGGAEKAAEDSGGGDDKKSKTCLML
Chain of High affinity 3',5'-cyclic-AMP phosphodiesterase 7A (Q13946 whole entry, the tested form may be a part): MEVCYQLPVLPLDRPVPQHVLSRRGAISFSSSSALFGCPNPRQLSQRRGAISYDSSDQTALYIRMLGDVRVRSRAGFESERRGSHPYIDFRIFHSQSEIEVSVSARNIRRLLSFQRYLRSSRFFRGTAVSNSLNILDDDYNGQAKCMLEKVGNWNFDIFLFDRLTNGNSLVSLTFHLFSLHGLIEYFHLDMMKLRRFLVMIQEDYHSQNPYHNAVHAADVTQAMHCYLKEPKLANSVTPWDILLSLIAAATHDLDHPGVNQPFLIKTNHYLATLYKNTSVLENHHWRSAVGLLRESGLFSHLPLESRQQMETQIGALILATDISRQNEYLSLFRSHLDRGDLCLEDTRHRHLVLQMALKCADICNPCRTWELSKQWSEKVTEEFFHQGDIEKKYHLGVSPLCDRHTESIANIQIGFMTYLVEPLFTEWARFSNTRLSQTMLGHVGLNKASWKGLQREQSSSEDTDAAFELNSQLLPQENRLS

C[C@@H](Nc1nc2c(cnn2C(C)(C)C)c(=O)n1Cc1ccc(F)cc1)c1ccc(Cl)cc1
half-life [1]: 0.263 to 0.267 h | half-life [2]: 0.262 h | IC50 [3]: > 10 µM | IC50 [4]: > 10 µM | IC50 [5]: 0.699 µM | IC50 [6]: > 10 µM | IC50 [7]: > 10 µM | IC50 [8]: 2.02 µM | IC50 [9]: 1.77 µM | half-life [10]: 5.5 h | half-life [11]: 3.7 h | Tmax [12]: 4 h | Cmax [13]: 169 ng/mL | AUC(0-t) [14]: 1300 ng·h/mL | AUC(0-inf) [15]: 2100 ng·h/mL | AUC(0-inf) [16]: 1320 ng·h/mL | MRT last [17]: 5.81 h | MRT last [18]: 6.88 h | bioavailability [19]: 34% | solubility [20]: 16 µg/mL (≈ 35.2 µM) | Fu [21]: 0.1% | IC50 [22]: > 25 µM | IC50 [23]: > 25 µM | IC50 [24]: 6.6 µM | IC50 [25]: 11 µM | MTD [26]: > 1500 mg/kg | Activity [27]: Active | Activity [28]: Active | Activity [29]: Active | Activity [30]: Active | Activity [31]: Active | Activity [32]: Active | Activity [33]: Active | Activity [34]: Active | Activity [35]: Dose-dependent effect | Activity [36]: Dose-dependent effect
